We go through five compounds from US20250115576A1, “THERAPEUTIC COMPOUNDS AND METHODS OF USE THEREOF” (Genentech, Inc., priority 2018, published 2025).

Assay [1] has as its target T1, hNav1.7 (Homo sapiens (Human), UniProt Q15858). In words: Tritiated compound binding to membranes from cells expressing hNav1.7 and the β1 subunit (Nav1.7 LBA). Conditions: competitive binding vs [3H]compound, membranes with hNav1.7 and β1 subunit; read-out: Nav1.7 LBA EVO IC50. On the procedure:
Example 64a. Tritiated Compound Binding to Membranes Isolated from Cells that Heterologously Express hNav1.7 and the β 1 Subunit
Preparation of membranes containing recombinantly expressed sodium channels: Frozen recombinant cell pellets are thawed on ice and diluted to 4 times the cell pellet weight with ice cold 50 mM Tris HCl, pH 7.4 buffer. The cell suspensions are homogenized on ice using a motorized glass dounce homogeniser. Homogenates are further diluted 8.4 times with ice cold 50 mM Tris HCl, pH 7.4 buffer and then centrifuged at 200×g at 4° C. for 15 minutes. The supernatants are collected and centrifuged at 10000×g at 4° C. for 50 min. The pellets are then re-suspended in 100 mM NaCl, 20 mM Tris HCl, pH 7.4 buffer containing 1% v/v protease inhibitors (Calbiochem) and re-homogenized on ice. The homogenized membranes are then processed through a syringe equipped with a 26 gauge needle. Protein concentrations arer determined by Bradford Assay and the membranes are stored at −80° C.
Radioligand Binding Studies: Saturation experiments. A competitive NaV1.7 inhibitor having a methyl group is tritiated. Three tritiums are incorporated in place of methyl hydrogens to generate [^3H]compound. Binding of this radioligand is performed in 5 mL borosilicate glass test tubes at room temperature. Binding is initiated by adding membranes to increasing concentrations of [^3H]compound in 100 mM NaCl, 20 mM Tris HCl, pH 7.4 buffer containing 0.01% w/v bovine serum albumin (BSA) for 18 h. Non-specific binding is determined in the presence of 1 μM unlabeled compound. After 18 h, the reactants are filtered through GF/C glass fiber filters presoaked in 0.5% w/v polyethylene imine. […] [^3H]compound bound to filters is quantified by liquid scintillation counting.
Competitive binding experiments: Binding reactions are performed in 96-well polypropylene plates at room temperature for 18 h. […] Bound radioactivity is determined by liquid scintillation counting.
Data Analysis: For saturation experiments, non-specific binding is subtracted from total binding to provide specific binding and these values are recalculated in terms of pmol ligand bound per mg protein. Saturation curves are constructed and dissociation constants are calculated using the single site ligand binding model: Beq=(Bmax*X)/(X+Kd), where Beq is the amount of ligand bound at equilibrium, Bmax is the maximum receptor density, Kd is the dissociation constant for the ligand, and X is the free ligand concentration. For competition studies percent inhibition is determined and IC50 values are calculated using a 4 parameter logistic model (% inhibition=(A+((B−A)/(1+((x/C)^D)))) using XLfit, where A and B are the maximal and minimum inhibition respectively, C is the IC50 concentration and D is the (Hill) slope. […]
Target sequence in this assay (Q15858 whole entry, looked up): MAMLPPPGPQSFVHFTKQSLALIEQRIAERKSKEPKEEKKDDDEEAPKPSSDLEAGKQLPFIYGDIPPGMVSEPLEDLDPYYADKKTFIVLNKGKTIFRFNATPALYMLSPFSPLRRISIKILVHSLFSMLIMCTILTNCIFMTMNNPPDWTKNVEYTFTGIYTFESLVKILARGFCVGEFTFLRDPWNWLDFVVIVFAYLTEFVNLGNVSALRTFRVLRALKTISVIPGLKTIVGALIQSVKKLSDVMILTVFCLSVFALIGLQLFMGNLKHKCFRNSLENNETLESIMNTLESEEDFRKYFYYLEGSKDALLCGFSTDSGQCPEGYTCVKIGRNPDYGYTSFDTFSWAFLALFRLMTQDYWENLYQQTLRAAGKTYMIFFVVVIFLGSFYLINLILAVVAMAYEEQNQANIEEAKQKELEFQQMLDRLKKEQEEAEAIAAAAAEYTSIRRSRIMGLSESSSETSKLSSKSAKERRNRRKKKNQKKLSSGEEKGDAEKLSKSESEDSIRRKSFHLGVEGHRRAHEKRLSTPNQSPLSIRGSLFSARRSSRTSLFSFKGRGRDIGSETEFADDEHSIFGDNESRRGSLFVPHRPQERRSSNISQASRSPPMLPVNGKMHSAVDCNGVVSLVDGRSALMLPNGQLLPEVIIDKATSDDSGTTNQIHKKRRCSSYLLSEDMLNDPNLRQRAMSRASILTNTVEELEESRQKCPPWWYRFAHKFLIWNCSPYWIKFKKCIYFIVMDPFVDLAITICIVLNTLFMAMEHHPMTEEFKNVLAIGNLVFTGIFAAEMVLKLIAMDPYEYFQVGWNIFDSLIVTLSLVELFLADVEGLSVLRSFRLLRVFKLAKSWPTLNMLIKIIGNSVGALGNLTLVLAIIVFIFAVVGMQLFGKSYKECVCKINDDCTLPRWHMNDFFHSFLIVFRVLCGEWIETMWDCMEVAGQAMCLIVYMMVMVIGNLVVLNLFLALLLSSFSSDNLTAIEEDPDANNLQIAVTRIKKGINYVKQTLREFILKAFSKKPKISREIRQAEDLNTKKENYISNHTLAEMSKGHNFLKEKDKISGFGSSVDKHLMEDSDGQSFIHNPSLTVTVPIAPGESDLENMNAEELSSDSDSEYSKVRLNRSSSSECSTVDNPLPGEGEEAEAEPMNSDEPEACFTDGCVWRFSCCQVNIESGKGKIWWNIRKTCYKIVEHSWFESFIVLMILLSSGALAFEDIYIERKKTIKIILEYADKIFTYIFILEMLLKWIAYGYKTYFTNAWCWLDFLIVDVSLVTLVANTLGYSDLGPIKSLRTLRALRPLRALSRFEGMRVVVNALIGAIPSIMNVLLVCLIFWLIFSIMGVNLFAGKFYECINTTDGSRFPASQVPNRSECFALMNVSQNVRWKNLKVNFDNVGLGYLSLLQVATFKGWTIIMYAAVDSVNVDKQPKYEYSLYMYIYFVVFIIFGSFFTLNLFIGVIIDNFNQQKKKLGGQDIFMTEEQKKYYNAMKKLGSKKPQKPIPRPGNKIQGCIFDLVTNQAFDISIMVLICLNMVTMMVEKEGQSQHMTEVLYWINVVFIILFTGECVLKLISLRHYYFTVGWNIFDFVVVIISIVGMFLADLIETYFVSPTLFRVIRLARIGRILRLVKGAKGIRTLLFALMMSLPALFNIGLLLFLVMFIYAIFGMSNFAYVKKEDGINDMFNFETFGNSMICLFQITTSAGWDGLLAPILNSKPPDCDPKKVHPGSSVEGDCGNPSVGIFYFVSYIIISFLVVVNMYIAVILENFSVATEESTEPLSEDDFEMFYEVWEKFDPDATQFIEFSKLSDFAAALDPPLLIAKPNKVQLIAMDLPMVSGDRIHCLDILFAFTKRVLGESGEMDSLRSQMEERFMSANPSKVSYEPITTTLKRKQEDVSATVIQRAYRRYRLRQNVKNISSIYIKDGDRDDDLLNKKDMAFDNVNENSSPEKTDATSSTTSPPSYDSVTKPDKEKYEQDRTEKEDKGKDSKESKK
Target sequence in this assay (Q07699 whole entry partner, looked up): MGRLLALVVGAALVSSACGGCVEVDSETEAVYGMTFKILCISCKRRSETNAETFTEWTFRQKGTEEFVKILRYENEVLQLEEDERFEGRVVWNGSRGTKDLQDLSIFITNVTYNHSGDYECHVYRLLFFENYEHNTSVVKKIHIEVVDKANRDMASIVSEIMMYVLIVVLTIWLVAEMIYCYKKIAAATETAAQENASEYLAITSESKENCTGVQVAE

Assay [2] addresses T1, hNav1.7. In words: Patch voltage clamp electrophysiology (EP), Syncropatch 384PE, CHO cells stably expressing Nav1.7. The conditions noted are these: holding potential −50 mV, 7.5 min compound incubation, read-out: EP_SP hNav1.7 EVO IC50. The format is cell-based. In short, it runs like this:
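Whole-cell automated patch clamp on CHO cells stably expressing human Nav1.7, holding at −50 mV; after a −10 mV prepulse and 20 ms recovery at −150 mV, test-pulse currents at −10 mV are measured. Inhibition taken after 7.5 min compound exposure; full block defined with TTX.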
Target sequence in this assay (Q15858 other isoform, or with tags, fused parts or gaps): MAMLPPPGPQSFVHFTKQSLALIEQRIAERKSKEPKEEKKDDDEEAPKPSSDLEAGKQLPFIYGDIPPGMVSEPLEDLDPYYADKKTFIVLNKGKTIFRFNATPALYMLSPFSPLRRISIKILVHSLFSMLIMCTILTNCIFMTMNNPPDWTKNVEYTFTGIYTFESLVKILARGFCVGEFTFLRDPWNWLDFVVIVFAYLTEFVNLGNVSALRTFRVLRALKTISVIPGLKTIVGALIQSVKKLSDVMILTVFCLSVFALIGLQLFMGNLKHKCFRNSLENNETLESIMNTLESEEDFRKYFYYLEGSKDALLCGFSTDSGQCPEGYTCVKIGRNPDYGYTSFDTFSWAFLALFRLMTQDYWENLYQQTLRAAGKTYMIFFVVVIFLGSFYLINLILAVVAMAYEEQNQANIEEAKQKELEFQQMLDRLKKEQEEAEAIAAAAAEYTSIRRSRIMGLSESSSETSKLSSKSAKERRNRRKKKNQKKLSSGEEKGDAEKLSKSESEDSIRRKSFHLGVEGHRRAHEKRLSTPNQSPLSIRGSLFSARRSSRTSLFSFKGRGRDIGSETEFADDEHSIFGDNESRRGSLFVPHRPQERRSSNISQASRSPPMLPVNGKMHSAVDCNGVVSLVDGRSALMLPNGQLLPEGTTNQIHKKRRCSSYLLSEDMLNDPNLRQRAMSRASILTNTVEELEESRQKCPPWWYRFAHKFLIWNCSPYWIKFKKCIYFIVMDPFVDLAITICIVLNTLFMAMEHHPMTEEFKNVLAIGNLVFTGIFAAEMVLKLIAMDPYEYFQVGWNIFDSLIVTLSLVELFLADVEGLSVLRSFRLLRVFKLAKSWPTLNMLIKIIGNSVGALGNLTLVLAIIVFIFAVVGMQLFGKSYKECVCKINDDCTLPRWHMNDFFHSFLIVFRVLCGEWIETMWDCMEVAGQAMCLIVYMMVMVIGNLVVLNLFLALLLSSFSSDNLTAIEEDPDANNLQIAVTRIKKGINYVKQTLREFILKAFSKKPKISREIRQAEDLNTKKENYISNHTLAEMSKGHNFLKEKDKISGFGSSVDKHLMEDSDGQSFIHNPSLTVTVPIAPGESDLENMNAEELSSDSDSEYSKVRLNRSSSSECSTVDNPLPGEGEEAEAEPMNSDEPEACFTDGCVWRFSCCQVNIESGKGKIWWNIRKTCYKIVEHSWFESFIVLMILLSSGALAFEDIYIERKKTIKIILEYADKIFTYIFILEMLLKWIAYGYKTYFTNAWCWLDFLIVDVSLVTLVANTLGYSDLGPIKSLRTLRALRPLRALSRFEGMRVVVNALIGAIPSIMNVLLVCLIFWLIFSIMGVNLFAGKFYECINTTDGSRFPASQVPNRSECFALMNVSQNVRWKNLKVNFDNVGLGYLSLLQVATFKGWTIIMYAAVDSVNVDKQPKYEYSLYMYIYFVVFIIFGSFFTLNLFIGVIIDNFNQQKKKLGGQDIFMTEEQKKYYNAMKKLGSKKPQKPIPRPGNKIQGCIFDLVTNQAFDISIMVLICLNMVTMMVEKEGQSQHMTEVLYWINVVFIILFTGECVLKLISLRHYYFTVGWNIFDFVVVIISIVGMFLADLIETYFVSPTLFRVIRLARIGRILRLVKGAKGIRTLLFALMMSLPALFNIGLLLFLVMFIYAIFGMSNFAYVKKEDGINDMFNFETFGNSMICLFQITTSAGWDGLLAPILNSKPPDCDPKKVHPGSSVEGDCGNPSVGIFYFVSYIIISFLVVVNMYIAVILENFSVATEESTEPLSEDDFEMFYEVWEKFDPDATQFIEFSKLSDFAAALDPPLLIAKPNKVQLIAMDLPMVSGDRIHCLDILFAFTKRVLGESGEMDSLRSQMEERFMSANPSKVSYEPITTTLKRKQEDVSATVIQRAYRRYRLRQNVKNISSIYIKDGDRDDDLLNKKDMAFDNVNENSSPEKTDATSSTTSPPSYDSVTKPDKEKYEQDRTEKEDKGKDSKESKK
On the technique in general: In patch-clamp work, channel activity is measured electrically.

A word on the IC50: it is the point on the concentration scale where inhibition reaches its midpoint. With `CN(C)[C@H]1C[C@@H](c2cccc(C(F)(F)F)c2)CC[C@@H]1Nc1ccc(S(=O)(=O)Nc2ccncn2)cn1` (racemic) [Example 2, 6-(((1S,2S,4S)-2-(Dimethylamino)-4-(3-(trifluoromethyl)phenyl)cyclohexyl)amino)-N-(pyrimidin-4-yl)pyridine-3-sulfonamide], the values for the concentration for half-maximal inhibition (IC50) in assay [1] and in assay [2] were 9.17 nM and 0.427 nM, respectively. The corresponding values for “5-Chloro-6-(((1S,2S,4S)-4-(3-chlorophenyl)-2-(dimethylamino)cyclohexyl)oxy)-N-(pyrimidin-4-yl)pyridine-3-sulfonamide [Example 27]” are 7.12 nM and 0.574 nM. The corresponding values for “6-(((1S,2S,4S)-4-(3-(1,1-difluoroethyl)phenyl)-2-(dimethylamino)cyclohexyl)oxy)-2-methyl-N-(pyrimidin-4-yl)pyridine-3-sulfonamide [Example 41]” are 1.9 nM and 1.95 nM. The like results for `Cc1nc(O[C@H]2CC[C@H](c3cccc(C(F)(F)F)n3)C[C@@H]2N(C)C)ccc1S(=O)(=O)Nc1ccncn1` [Example 51, 6-(((1S,2S,4S)-2-(dimethylamino)-4-(6-(trifluoromethyl)pyridin-2-yl)cyclohexyl)oxy)-2-methyl-N-(pyrimidin-4-yl)pyridine-3-sulfonamide] were, in that order, 0.985 nM and 4.59 nM. As to `CCN(CC)[C@H]1C[C@@H](c2cccc(C(F)(F)F)c2)CC[C@@H]1Oc1ccc(S(=O)(=O)Nc2ccncn2)c(C)n1` [Example 47, 6-(((1S,2S,4S)-2-(Diethylamino)-4-(3-(trifluoromethyl)phenyl)cyclohexyl)oxy)-2-methyl-N-(pyrimidin-4-yl)pyridine-3-sulfonamide], the 50% inhibitory concentration (IC50) in assay [2] is 1.73 nM.
